# Legend:
# [1] = tested on: trichomonal hydrolases; assay: Experiment 6 part 2: inhibition of trichomonal hydrolases added to filtered vaginal fluid; type: biochemical, Trichomonas vaginalis; design: key: 0: Yellow; 1: Peach; 2: Orange; 3: Light to medium pink; 4: Dark pink or red; 5: Fuchsia; 6: Purple; conditions: ZRR-MNA, 20 μg/mL antipain or 1 mM chymostatin
# Procedure: (§1) Substrate/inhibitor combinations were prepared by mixing 4 μL of 100 mM ZRR-MNA, 20 μL of 1M HEPES buffer, 56 μL of deionized water, and 20 μL of either antipain, chymostatin, or deionized water. Filtered vaginal fluid was prepared from each specimen as follows: the swab was placed in a cuvette containing 200 μL of diluent and the swab was rotated in the diluent to thoroughly mix the swab contents into the diluent. The swab was removed, the swab head was broken off into a microfuge tube, and the liquid remaining in the swab head was forced out by centrifugation. The fluid extracted from the swab was combined with the liquid in the cuvette, and the total volume of fluid was filtered using a centrifuge filter unit to remove particulate matter.
# (§2) For each specimen, 4 μL of vaginal fluid filtrate was mixed with 4 μL of each of the three substrate/inhibitor combinations in separate microwells; one well contained 20 μg/mL antipain, one contained 1 mM chymostatin, and one had no inhibitor. After ten minutes, 4 μL of color developer solution was added to each well.
# Trichomonal hydrolases were added to each of the filtered vaginal fluid specimens—10 μL of trichomonal hydrolase preparation added to 90 μL vaginal fluid filtrate—and the above experiment was repeated.
# [2] = tested on: non-trichomonal hydrolases present in normal vaginal fluid supernatants; assay: Experiment 6 part 1: inhibition of non-trichomonal hydrolases in filtered normal vaginal fluid; type: biochemical, human; design: key: 0: Yellow; 1: Peach; 2: Orange; 3: Light to medium pink; 4: Dark pink or red; 5: Fuchsia; 6: Purple; conditions: uninfected, ZRR-MNA, 20 μg/mL antipain or 1 mM chymostatin
# Procedure: as §1, §2
smiles,measurement,setting,value
"CC(C)C[C@H](NC(=O)[C@@H](NC(=O)N[C@@H](Cc1ccccc1)C(=O)O)[C@@H]1CCN=C(N)N1)C(=O)N[C@H](C=O)Cc1ccccc1 [Chymostatin, chymostatin]",Hydrolase activity color score with inhibitor,[1]; Donor A filtrate supplemented with trichomonal hydrolases,3.5
same,Hydrolase activity color score with inhibitor,[1]; Donor B filtrate supplemented with trichomonal hydrolases,3.5
same,Hydrolase activity color score with inhibitor,[1]; Donor C filtrate supplemented with trichomonal hydrolases,3.5
same,Hydrolase activity color score with inhibitor,[1]; Donor D filtrate supplemented with trichomonal hydrolases,4
same,Hydrolase activity color score with inhibitor,[1]; Donor E filtrate supplemented with trichomonal hydrolases,3
same,Hydrolase activity color score with inhibitor,[1]; Donor F filtrate supplemented with trichomonal hydrolases,3
same,Hydrolase activity color score with inhibitor,[2]; Donor A,0
same,Hydrolase activity color score with inhibitor,[2]; Donor B,0
same,Hydrolase activity color score with inhibitor,[2]; Donor C,0
same,Hydrolase activity color score with inhibitor,[2]; Donor D,2
same,Hydrolase activity color score with inhibitor,[2]; Donor E,0
same,Hydrolase activity color score with inhibitor,[2]; Donor F,0

# Reference: patent publication US20080026417A1, “ASSAYS FOR TRICHOMONAL AND OTHER HYDROLASES” (priority 2002, published 2008)
